Data taken from patent US20220264878A1, “HERBICIDAL COMPOSITION CONTAINING R-TYPE PYRIDYLOXY CARBOXYLIC ACID DERIVATIVE AND USE THEREOF” (Qingdao Kingagroot Chemical Compound Co., Ltd., priority 2019, published 2022).

What was measured:
Assay in all cases: Post-emergence foliage spray, pot culture, fresh weight inhibition (Tables 1-48, 51-98, 101-148; 24 days)
Format in all cases: in vivo
[1] = test system: Capsella bursa-pastoris
How it was run: (§1)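 Greenhouse pot-grown weeds (15 per pot, 3 pots, 4 replicates) at the 5–6-leaf (grasses) or 6–7-leaf (broadleaf) stage were sprayed once on foliage at 450 kg/ha spray volume, 0.3 MPa. Acetone solutions were diluted in 0.1% Tween-80. Aboveground fresh weight versus blank control was recorded after 24 days.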

[2] = test system: Ipomoea purpurea; settings: Table 98
How it was run: as §1

[3] = test system: Eleusine indica
How it was run: as §1

[4] = test system: Sonchus arvensis
How it was run: as §1

[5] = test system: Veronica persica^2 (collected in Zhumadian of Henan Province)
How it was run: as §1

[6] = test system: Setaria glauca; settings: Table 84
How it was run: as §1

[7] = test system: Abutilon theophrasti
How it was run: as §1

[8] = test system: Ludwigia prostrate
How it was run: as §1

[9] = test system: Alopecurus japonicus
How it was run: as §1

[10] = test system: Conyza Canadensis
How it was run: as §1

[11] = test system: Setaria viridis; settings: A = A2 alone, g a.i./ha: r10 60, r11 60, r12 30, r13 30
How it was run: as §1

[12] = test system: Eclipta prostrate; settings: fresh weight inhibition after 24 days
How it was run: as §1

[13] = test system: Amaranthus retroflexus
How it was run: as §1

With `C[C@@H](Oc1nc(F)c(Cl)c(N)c1Cl)C(=O)O` [Compound A1] the “Control effect (%) of A applied alone in corresponding dose” value (from here on “Control effect (%) of A applied alone”) ([1]; A1 7.5 g a.i./ha) was 36.2%, the “Control effect (%) of A applied alone” value ([1]; A1 15 g a.i./ha) was 75.9% and the “Control effect (%) of A applied alone” value ([2]; 75 g a.i./ha) was 37.7%. The “Control effect (%) of A applied alone” value ([2]; 150 g a.i./ha (r12), r13 prints 75 + 7.5, A:B 20:1) was 59.5%, the “Control effect (%) of A applied alone” value ([3]; Table 79, 75 g a.i./ha) was 24.4% and the “Control effect (%) of A applied alone” value ([3]; Table 79, 150 g a.i./ha) was 52.2%. The “Control effect (%) of A applied alone” value ([3]; Table 82, 75 g a.i./ha) was 24.4%, the “Control effect (%) of A applied alone” value ([3]; Table 82, 150 g a.i./ha) was 52.2% and the “Control effect (%) of A applied alone” value ([3]; Table 83, 75 g a.i./ha) was 24.4%. For the same compound, the “Control effect (%) of A applied alone” value ([3]; Table 83, 150 g a.i./ha) was 52.2%, the “Control effect (%) of A applied alone” value ([4]; A1 30 g a.i./ha) was 33.3% and the “Control effect (%) of A applied alone” value ([4]; A1 60 g a.i./ha) was 70.7%. For the same compound, the “Control effect (%) of A applied alone” value ([5]; Table 87, 75 g a.i./ha) was 19.6%, the “Control effect (%) of A applied alone” value ([5]; Table 87, 150 g a.i./ha) was 42.4% and the “Control effect (%) of A applied alone” value ([5]; Table 88, 75 g a.i./ha) was 19.6%. The “Control effect (%) of A applied alone” value ([5]; Table 88, 150 g a.i./ha) was 42.4%, the “Control effect (%) of A applied alone” value ([5]; Table 90, 75 g a.i./ha) was 19.6% and the “Control effect (%) of A applied alone” value ([5]; Table 90, 150 g a.i./ha) was 42.4%. The “Control effect (%) of A applied alone” value ([6]; 30 g a.i./ha) was 34.7%, the “Control effect (%) of A applied alone” value ([6]; 60 g a.i./ha) was 57.6% and the “Control effect (%) of A applied alone” value ([7]; A1 7.5 g a.i./ha) was 44.3%. For the same compound, the “Control effect (%) of A applied alone” value ([7]; A1 15 g a.i./ha) was 79.6%, the “Control effect (%) of A applied alone” value ([8]; A1 75 g a.i./ha) was 34.3% and the “Control effect (%) of A applied alone” value ([8]; A1 150 g a.i./ha) was 72.4%. The “Control effect (%) of A applied alone” value ([9]; A1 7.5 g a.i./ha) was 25.6%, the “Control effect (%) of A applied alone” value ([9]; A1 15 g a.i./ha) was 48.1% and the “Control effect (%) of A applied alone” value ([9]; A1 75 g a.i./ha) was 25.6%. The “Control effect (%) of A applied alone” value ([9]; A1 150 g a.i./ha) was 48.1%.
For `C[C@@H](Oc1nc(F)c(Cl)c(N)c1Cl)C(=O)OCC1CCCO1` (stereo partly drawn) [Compound A2], the “Control effect (%) of A applied alone” value ([10]; A2 75 g a.i./ha) was 36.7%, the “Control effect (%) of A applied alone” value ([10]; A2 150 g a.i./ha) was 57.2% and the “Control effect (%) of A applied alone” value ([11]; A2 alone at 30 g a.i./ha) was 32.7%. The “Control effect (%) of A applied alone” value ([11]; A2 alone at 60 g a.i./ha) was 56.3%, the “Control effect (%) of A applied alone” value ([12]; A 75 g a.i/ha) was 32.3% and the “Control effect (%) of A applied alone” value ([12]; A 150 g a.i/ha) was 68.4%. The “Control effect (%) of A applied alone” value ([13]; A2 75 g a.i./ha) was 22.9% and the “Control effect (%) of A applied alone” value ([13]; A2 150 g a.i./ha) was 52.4%.
